Experimental data from patent US20220315558A1, “POLYMORPHS OF 1-(2-((((TRANS)-3-FLUORO-1-(3-FLUOROPYRIDIN-2-YL)CYCLOBUTYL)METHYL)AMINO)PYRIMIDIN-5-YL)-1H-PYRROLE-3-CARBOXAMIDE” (Cytokinetics, Inc., priority 2019, published 2022).

What was measured:
Assay type in all cases: physicochemical
[1] = Competitive slurry experiments between Form I and Form V; conditions: XRPD
Experimental: For competitive slurry experiments, a mixture of Form I (˜10 mg) and Form V (˜10 mg) were suspended in 20 volumes of ethanol or methanol. Parallel maturation experiments were set up at a constant temperature, in the range of 4° C. to 60° C. for 9-12 days, the resulting solids (rapidly isolated by solvent decantation) were analyzed by XRPD. A mechanical mixture of Form I and Form V in equivalent weight was also analyzed by XRPD for reference. For the control experiments, slurries of Form I or Form V were subjected to the same conditions as in the competitive slurry experiments.
In an attempt to determine a transition temperature for the polymorph pair, a further four competitive slurry experiments were performed at a higher temperature range of 65-75° C. Using sealed vials, Form I (˜10 mg) and Form V (˜10 mg) were suspended in 20 volumes of ethanol or methanol and maturation continued for 2 days.

[2] = Gravimetric Vapour Sorption (GVS) moisture sorption isotherm; conditions: over 0-90% RH range, 25° C.
Experimental: GVS data were collected using a SMS DVS Intrinsic moisture sorption analyser, controlled by DVS Intrinsic Control software v1.0.0.30. The sample temperature was maintained at 25° C. by the instrument controls. The humidity was controlled by mixing streams of dry and wet nitrogen, with a total flow rate of 200 ml/min The relative humidity was measured by a calibrated Rotronic probe (dynamic range of 1.0-100% RH), located near the sample. The weight change, (mass relaxation) of the sample as a function of % RH was constantly monitored by the microbalance (accuracy ±0.005 mg).
Typically 5-20 mg of sample was placed in a tared mesh stainless steel basket under ambient conditions. The sample was loaded and unloaded at 40% RH and 25° C. (typical room conditions). A moisture sorption isotherm was performed as outlined below (2 scans giving 1 complete cycle). The standard isotherm was performed at 25° C. at 10% RH intervals over a 0-90% RH range. Data analysis was undertaken in Microsoft Excel using DVS Analysis Suite v6.0.

[3] = Competitive slurry experiments between Form I and Form II; conditions: methanol, constant temperature 4 to 60° C., 12 days, XRPD
Experimental: (§1) A mechanical mixture of Form I and Form II was prepared. This mixture was analyzed by XRPD for reference. The mixture (ca. 25 mg) was suspended in methanol, and parallel maturation experiments were set up at a constant temperature, in the range of 4 to 60° C., for a total of 12 days. The resulting solids were filtered and analyzed by XRPD.

[4] = Solubility of Form I in solvents at 50° C. (polymorph screening); set-up: key: ✓ YES; x NO
Experimental: Polymorphic Form I of 1-(2-((((trans)-3-fluoro-1-(3-fluoropyridin-2-yl)cyclobutyl)methyl)amino)pyrimidin-5-yl)-1H-pyrrole-3-carboxamide was weighed into vials, and the stated solvents were added, in increasing portions, at 50° C. With each addition, the vials were allowed to shake for ˜20 minutes. After the last addition, any suspensions observed were subjected to heat/cool cycles, between room temperature and 50° C., 4 hours at each condition, for 1 week. Solutions were allowed to slowly evaporate.
Aliquots were filtered by suction after 7 days maturation and analysed by XRPD (low resolution, air-dried only). Most solutions yielded solids after 9 days and these were analyzed by XRPD as well.

[5] = Competitive slurry experiments between Form I and Form IV; conditions: as Example 3 (methanol, 4 to 60° C.), 12 days, XRPD
Experimental: as §1
Competitive slurry experiments between Form I and Form IV were conducted in a manner similar to that described in Example 3.

[6] = Storage stability for 7 days at controlled temperature/RH, checked by XRPD
Experimental: Ray Powder Diffraction patterns were collected on a Bruker D8 diffractometer using Cu Kα radiation (40 kV, 40 mA), θ-2θ goniometer, and divergence of V4 and receiving slits, a Ge monochromator and a Lynxeye detector. The instrument is performance checked using a certified Corundum standard (NIST 1976). The software used for data collection was Diffrac Plus XRD Commander v2.6.1 and the data were analysed and presented using Diffrac Plus EVA v13.0.0.2 or v15.0.0.0.
Samples were run under ambient conditions as flat plate specimens using powder as received. The sample was gently packed into a cavity cut into polished, zero-background (510) silicon wafer. The sample was rotated in its own plane during analysis. The details of the data collection are: • Angular range: 2 to 42° 2θ • Step size: 0.05° 2θ • Collection time: 0.5 s/step
Polymorphic Form I of 1-(2-((((trans)-3-fluoro-1-(3-fluoropyridin-2-yl)cyclobutyl)methyl)amino)pyrimidin-5-yl)-1H-pyrrole-3-carboxamide was analyzed by XRPD, DSC, TGA, and GVS. […] Chemical stability study of Form I was also performed. XRPD patterns were measured after storage of samples of Form I for 7 days at 40° C./75% RH and 25° C./97% RH.

## NC(=O)c1ccn(-c2cnc(NC[C@]3(c4ncccc4F)C[C@H](F)C3)nc2)c1 [Form V, 1-(2-((((trans)-3-fluoro-1-(3-fluoropyridin-2-yl)cyclobutyl)methyl)amino)pyrimidin-5-yl)-1H-pyrrole-3-carboxamide]
[1]; ethanol, 4° C. to 60° C., 9-12 days
  relative stability versus Form I (competitive slurry): more stable
[1]; ethanol, 65-75° C., 2 days, sealed vials
  relative stability versus Form I (competitive slurry): more stable form
[1]; methanol, 4° C. to 60° C., 9-12 days
  relative stability versus Form I (competitive slurry): more stable
[1]; methanol, 65° C., 2 days, sealed vials
  solid form obtained from Form I/Form V competitive slurry: mixture of both forms
[2]
  moisture uptake as determined by GVS: less than 0.05%

## NC(=O)c1ccn(-c2cnc(NC[C@]3(c4ncccc4F)C[C@H](F)C3)nc2)c1 [Form I, 1-(2-((((trans)-3-fluoro-1-(3-fluoropyridin-2-yl)cyclobutyl)methyl)amino)pyrimidin-5-yl)-1H-pyrrole-3-carboxamide]
[3]
  relative stability versus Form II (competitive slurry): more stable
[4]; 1,4-Dioxane, 10 volumes
  Solubility (volumes) (✓ YES; x NO) at 50° C.: x
[4]; 1,4-Dioxane, 25 volumes
  Solubility (volumes) (✓ YES; x NO) at 50° C.: x
[4]; 1,4-Dioxane, 50 volumes
  Solubility (volumes) (✓ YES; x NO) at 50° C.: x
[4]; 1-Butanol, 10 volumes
  Solubility (volumes) (✓ YES; x NO) at 50° C.: x
[4]; 1-Butanol, 25 volumes
  Solubility (volumes) (✓ YES; x NO) at 50° C.: x
[4]; 1-Butanol, 50 volumes
  Solubility (volumes) (✓ YES; x NO) at 50° C.: x
[4]; 1-Propanol, 10 volumes
  Solubility (volumes) (✓ YES; x NO) at 50° C.: x
[4]; 1-Propanol, 25 volumes
  Solubility (volumes) (✓ YES; x NO) at 50° C.: x
[4]; 1-Propanol, 50 volumes
  Solubility (volumes) (✓ YES; x NO) at 50° C.: x
[4]; 2-Propanol, 10 volumes
  Solubility (volumes) (✓ YES; x NO) at 50° C.: x
[4]; 2-Propanol, 25 volumes
  Solubility (volumes) (✓ YES; x NO) at 50° C.: x
[4]; 2-Propanol, 50 volumes
  Solubility (volumes) (✓ YES; x NO) at 50° C.: x
[4]; Acetone, 10 volumes
  Solubility (volumes) (✓ YES; x NO) at 50° C.: x
[4]; Acetone, 25 volumes
  Solubility (volumes) (✓ YES; x NO) at 50° C.: x
[4]; Acetone, 50 volumes
  Solubility (volumes) (✓ YES; x NO) at 50° C.: x
[4]; Acetonitrile, 10 volumes
  Solubility (volumes) (✓ YES; x NO) at 50° C.: ✓
[4]; Anisole, 10 volumes
  Solubility (volumes) (✓ YES; x NO) at 50° C.: x
[4]; Anisole, 25 volumes
  Solubility (volumes) (✓ YES; x NO) at 50° C.: x
[4]; Anisole, 50 volumes
  Solubility (volumes) (✓ YES; x NO) at 50° C.: x
[4]; Butyl acetate (BuOAc), 10 volumes
  Solubility (volumes) (✓ YES; x NO) at 50° C.: x
[4]; Butyl acetate (BuOAc), 25 volumes
  Solubility (volumes) (✓ YES; x NO) at 50° C.: x
[4]; Butyl acetate (BuOAc), 50 volumes
  Solubility (volumes) (✓ YES; x NO) at 50° C.: x
[4]; Dichloromethane (DCM), 10 volumes
  Solubility (volumes) (✓ YES; x NO) at 50° C.: x
[4]; Dichloromethane (DCM), 25 volumes
  Solubility (volumes) (✓ YES; x NO) at 50° C.: x
[4]; Dichloromethane (DCM), 50 volumes
  Solubility (volumes) (✓ YES; x NO) at 50° C.: x
[4]; Dioxane/5% water, 10 volumes
  Solubility (volumes) (✓ YES; x NO) at 50° C.: x
[4]; Dioxane/5% water, 25 volumes
  Solubility (volumes) (✓ YES; x NO) at 50° C.: x
[4]; Dioxane/5% water, 50 volumes
  Solubility (volumes) (✓ YES; x NO) at 50° C.: ✓
[4]; Ethanol, 10 volumes
  Solubility (volumes) (✓ YES; x NO) at 50° C.: x
[4]; Ethanol, 25 volumes
  Solubility (volumes) (✓ YES; x NO) at 50° C.: x
[4]; Ethanol, 50 volumes
  Solubility (volumes) (✓ YES; x NO) at 50° C.: x
[4]; Ethanol/5% water, 10 volumes
  Solubility (volumes) (✓ YES; x NO) at 50° C.: x
[4]; Ethanol/5% water, 25 volumes
  Solubility (volumes) (✓ YES; x NO) at 50° C.: x
[4]; Ethanol/5% water, 50 volumes
  Solubility (volumes) (✓ YES; x NO) at 50° C.: x
[4]; Ethyl acetate, 10 volumes
  Solubility (volumes) (✓ YES; x NO) at 50° C.: x
[4]; Ethyl acetate, 25 volumes
  Solubility (volumes) (✓ YES; x NO) at 50° C.: x
[4]; Ethyl acetate, 50 volumes
  Solubility (volumes) (✓ YES; x NO) at 50° C.: x
[4]; Heptane, 10 volumes
  Solubility (volumes) (✓ YES; x NO) at 50° C.: x
[4]; Heptane, 25 volumes
  Solubility (volumes) (✓ YES; x NO) at 50° C.: x
[4]; Heptane, 50 volumes
  Solubility (volumes) (✓ YES; x NO) at 50° C.: x
[4]; Isopropanol (IPA)/5% water, 10 volumes
  Solubility (volumes) (✓ YES; x NO) at 50° C.: x
[4]; Isopropanol (IPA)/5% water, 25 volumes
  Solubility (volumes) (✓ YES; x NO) at 50° C.: x
[4]; Isopropanol (IPA)/5% water, 50 volumes
  Solubility (volumes) (✓ YES; x NO) at 50° C.: x
[4]; Isopropyl acetate (IPAc), 10 volumes
  Solubility (volumes) (✓ YES; x NO) at 50° C.: x
[4]; Isopropyl acetate (IPAc), 25 volumes
  Solubility (volumes) (✓ YES; x NO) at 50° C.: x
[4]; Isopropyl acetate (IPAc), 50 volumes
  Solubility (volumes) (✓ YES; x NO) at 50° C.: x
[4]; Methanol, 10 volumes
  Solubility (volumes) (✓ YES; x NO) at 50° C.: x
[4]; Methanol, 25 volumes
  Solubility (volumes) (✓ YES; x NO) at 50° C.: x
[4]; Methanol, 50 volumes
  Solubility (volumes) (✓ YES; x NO) at 50° C.: x
[4]; Methyl ethyl ketone (MEK), 10 volumes
  Solubility (volumes) (✓ YES; x NO) at 50° C.: x
[4]; Methyl ethyl ketone (MEK), 25 volumes
  Solubility (volumes) (✓ YES; x NO) at 50° C.: x
[4]; Methyl ethyl ketone (MEK), 50 volumes
  Solubility (volumes) (✓ YES; x NO) at 50° C.: x
[4]; Methyl isobutyl ketone (MIBK), 10 volumes
  Solubility (volumes) (✓ YES; x NO) at 50° C.: x
[4]; Methyl isobutyl ketone (MIBK), 25 volumes
  Solubility (volumes) (✓ YES; x NO) at 50° C.: x
[4]; Methyl isobutyl ketone (MIBK), 50 volumes
  Solubility (volumes) (✓ YES; x NO) at 50° C.: x
[4]; Nitromethane, 10 volumes
  Solubility (volumes) (✓ YES; x NO) at 50° C.: x
[4]; Nitromethane, 25 volumes
  Solubility (volumes) (✓ YES; x NO) at 50° C.: x
[4]; Nitromethane, 50 volumes
  Solubility (volumes) (✓ YES; x NO) at 50° C.: x
[4]; THF/5% water, 10 volumes
  Solubility (volumes) (✓ YES; x NO) at 50° C.: x
[4]; THF/5% water, 25 volumes
  Solubility (volumes) (✓ YES; x NO) at 50° C.: Cloudy
[4]; THF/5% water, 50 volumes
  Solubility (volumes) (✓ YES; x NO) at 50° C.: ✓
[4]; Tert-butyl methyl ether (TBME), 10 volumes
  Solubility (volumes) (✓ YES; x NO) at 50° C.: x
[4]; Tert-butyl methyl ether (TBME), 25 volumes
  Solubility (volumes) (✓ YES; x NO) at 50° C.: x
[4]; Tert-butyl methyl ether (TBME), 50 volumes
  Solubility (volumes) (✓ YES; x NO) at 50° C.: x
[4]; Tetrahydrofuran (THF), 10 volumes
  Solubility (volumes) (✓ YES; x NO) at 50° C.: x
[4]; Tetrahydrofuran (THF), 25 volumes
  Solubility (volumes) (✓ YES; x NO) at 50° C.: x
[4]; Tetrahydrofuran (THF), 50 volumes
  Solubility (volumes) (✓ YES; x NO) at 50° C.: x
[4]; Toluene, 10 volumes
  Solubility (volumes) (✓ YES; x NO) at 50° C.: x
[4]; Toluene, 25 volumes
  Solubility (volumes) (✓ YES; x NO) at 50° C.: x
[4]; Toluene, 50 volumes
  Solubility (volumes) (✓ YES; x NO) at 50° C.: x
[4]; Water, 10 volumes
  Solubility (volumes) (✓ YES; x NO) at 50° C.: x
[4]; Water, 25 volumes
  Solubility (volumes) (✓ YES; x NO) at 50° C.: x
[4]; Water, 50 volumes
  Solubility (volumes) (✓ YES; x NO) at 50° C.: x
[5]
  relative stability versus Form IV (competitive slurry): more stable
[6]; 7 days at 25° C./97% RH
  changes in XRPD pattern after storage: No visible changes
[6]; 7 days at 40° C./75% RH
  changes in XRPD pattern after storage: No visible changes
[2]
  moisture uptake as determined by GVS: less than 0.07%
